Assay results as given in US8722868B2, “Glycosyltransferase, novel glycosyltransferase gene, and novel sugar donor compound” (National University Corporation Tokyo University of …, priority 2009, dated 2014).

Target: T1, crude enzyme obtained from pink petals of a carnation (variety: "Beam Cherry") (glycosyltransferase) (Dianthus caryophyllus, UniProt E3W9M2)
T1 construct: Thus, a crude enzyme liquid was obtained; from tissue; host or cells: pink petals of carnation, variety Beam Cherry (ammonium sulfate precipitate, desalted)
T1 sequence (E3W9M2 31-502): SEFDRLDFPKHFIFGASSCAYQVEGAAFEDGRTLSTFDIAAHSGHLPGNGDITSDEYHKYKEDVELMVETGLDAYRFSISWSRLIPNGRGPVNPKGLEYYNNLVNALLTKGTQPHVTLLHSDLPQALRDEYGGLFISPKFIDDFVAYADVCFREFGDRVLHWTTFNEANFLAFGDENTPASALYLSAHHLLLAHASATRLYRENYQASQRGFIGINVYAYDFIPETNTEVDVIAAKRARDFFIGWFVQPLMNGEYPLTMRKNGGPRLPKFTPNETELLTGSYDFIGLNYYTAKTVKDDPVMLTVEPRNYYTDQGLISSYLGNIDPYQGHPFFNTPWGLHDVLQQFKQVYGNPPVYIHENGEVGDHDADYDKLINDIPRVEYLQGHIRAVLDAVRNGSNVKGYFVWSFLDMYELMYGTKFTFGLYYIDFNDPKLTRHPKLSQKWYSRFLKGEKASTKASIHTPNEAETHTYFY
Assay: Relative activity of crude carnation petal enzyme on each sugar donor (glycosyl transfer to cyanidin 3-glucoside, HPLC)
Assay type: biochemical
Conditions: crude enzyme 61 μg, cyanidin β-glucoside 200 μM, sugar donor 500 μM, citric acid buffer pH 5.6, 30° C., 15 minutes; HPLC area of cyanidin 3,5-O-β diglucoside
Description: An enzyme reaction was carried out at 30° C. for 15 minutes in a reaction solution obtained by adding a citric acid buffer (pH 5.6) to a crude enzyme obtained from pink petals of a carnation (variety: “Beam Cherry”) (61 μg), cyanidin β-glucoside (200 μM), and a sugar donor (1-O-β-vanillyl glucose extracted from a carnation or any of synthesized 1-O-vanillyl glucose (in the α or β form), 1-O-isovanillyl glucose (in the α or β form), and 1-O-galloyl glucose (in the α or β form)) (500 μM) to a final volume of 30 μl. The reaction was terminated by adding a 20% phosphoric acid aqueous solution to the reaction liquid so as to result in a final phosphoric acid concentration of 1%, followed by centrifugation. The obtained supernatant was subjected to separation using an HPLC (Chromolith Speed ROD; 4.6×50 mm; Merck) with a linear gradient (5 minutes) of 18% to 28% liquid B containing eluent A (a 1.5% phosphoric acid aqueous solution) and eluent B (a 90% methanol aqueous solution) (flow rate: 3.0 ml/min; 520 nm), followed by analysis. The relative activity of the enzyme on each sugar donor was calculated based on the HPLC chromatogram area of a reaction product (cyanidin 3,5-O-β diglucoside) at a wavelength of 505 nm.

Row | Compound | Relative activity of an enzyme on a sugar donor (when synthetic 1-O-β-vanillyl glucose is set as 100)
1 | COc1ccc(C(=O)O[C@H]2O[C@H](CO)[C@@H](O)[C@H](O)[C@H]2O)cc1O [1-O-α-isovanillyl glucose (synthetic), 1-O-α-isovanillyl glucose] | Not detectable
2 | COc1ccc(C(=O)OC2OC(CO)C(O)C(O)C2O)cc1O (stereo not drawn) [1-O-β-isovanillyl glucose (synthetic), 1-O-β-isovanillyl glucose] | 23.1
3 | O=C(O[C@@H]1O[C@H](CO)[C@@H](O)[C@H](O)[C@H]1O)c1cc(O)c(O)c(O)c1 [1-O-β-galloyl glucose (synthetic), 1-O-β-galloyl glucose] | 2.4
4 | 1-O-α-vanillyl glucose [1-O-α-vanillyl glucose (synthetic)] | 1.7

Target: T2, enzyme purified from pink petals of a carnation (variety: "Beam Cherry") (glycosyltransferase) (Dianthus caryophyllus, UniProt E3W9M2)
T2 construct: the enzyme comprising 502 amino acid residues was translated, followed by amino acid removal via processing; from tissue; host or cells: petals of carnation, variety Beam Cherry
T2 sequence (E3W9M2 31-502): T1 sequence (E3W9M2 31-502)
Assay: Relative activity of glycosyltransferase purified from carnation on each sugar donor (HPLC)
Assay type: biochemical
Conditions: purified enzyme 135 ng, cyanidin 3-glucoside 200 μM, sugar donor 500 μM, citric acid buffer pH 5.6, 30° C., 15 minutes; HPLC area of cyanidin 3,5-O-β-diglucoside
Description: An enzyme reaction was carried out at 30° C. for 15 minutes using an enzyme (135 ng) purified from pink petals of a carnation (variety: “Beam Cherry”) by the method described in Example 2 ((1) and (2)), cyanidin 3-glucoside (200 μM), and a sugar donor (1-O-β-D-vanillyl glucose or any of 1-O-β-D-p-coumaryl glucose, 1-O-β-D-caffeyl glucose, 1-O-β-D-feruloyl glucose, and 1-O-β-D-sinapoyl glucose that had been enzymatically synthesized according to the method described in Matsuba Y et al., Plant Biotechnology vol. 25, No. 4 (2008) pp. 369-375) (500 μM) in a reaction solution adjusted to 30 μl with the addition of a citric acid buffer (pH 5.6). A 20% phosphoric acid aqueous solution was added to the reaction liquid so as to result in a final phosphoric acid concentration of 1%. Thus, the reaction was terminated, followed by centrifugation. The resulting supernatant was subjected to separation using a HPLC column (Chromolith SpeedROD, 4.6×50 mm, Merck), eluent A (a 1.5% phosphoric acid aqueous solution), and eluent B (a 90% methanol aqueous solution) with a linear gradient of 18% to 28% liquid B (flow rate: 3.0 ml/min, 520 nm) (5 minutes), followed by analysis. The relative activity of the enzyme on each sugar donor was determined by calculating the area of the reaction product (cyanidin 3,5-O-β-diglucoside) on an HPLC chromatogram at a wavelength of 505 nm.

Row | Compound | Relative activity of an enzyme on a sugar donor (when synthetic 1-O-β-vanillyl glucose is set as 100)
5 | O=C(/C=C/c1ccc(O)cc1)OC1OC(CO)C(O)C(O)C1O [1-O-β-D-p-coumaryl glucose (synthetic), 1-O-β-p-coumaryl glucose] | 350
6 | COc1cc(/C=C/C(=O)OC2OC(CO)C(O)C(O)C2O)cc(OC)c1O [1-O-β-D-sinapoyl glucose (synthetic), 1-O-β-sinapoyl glucose] | 793
7 | COc1cc(/C=C/C(=O)OC2OC(CO)C(O)C(O)C2O)ccc1O [1-O-β-D-feruloyl glucose (synthetic), 1-O-β-feruloyl glucose] | 1320
8 | O=C(/C=C/c1ccc(O)c(O)c1)OC1OC(CO)C(O)C(O)C1O [1-O-β-D-caffeyl glucose (synthetic), 1-O-β-caffeyl glucose] | 464
